The source of these data is patent publication US5591648A, “Antibodies for mevalonic acid and methods for immunological determination of mevalonic acid by using them” (Ono Pharmaceutical Co., Ltd., priority 1993, dated 1997).

What all share (format): binding
The subject of assay [1] is rabbit polyclonal antibody KLH-(12)R for mevalonic acid. The assay can be described thus: Cross-reaction of rabbit polyclonal antibody with analogues of mevalonic acid (radioimmunoassay, competition with R-[2-14C] mevalonic acid). The note with it: for IC50: competition with 400 Bq R-[2-14C] mevalonic acid, overnight at 4° C., polyethylene glycol precipitation. The method, then: After about 4 weeks, the rabbit was sensitized four times for each 2 weeks, by an emulsion of a PBS solution (500 μl) containing of the antigen for immunization prepared by the same procedure as hereinbefore described, and FICA (500 μl).
Blood was collected from the rabbit and to the serum prepared (50 μl) were added successively water (450 μl), 0.5% γ-globulin (80 μl) and a saturated aqueous solution of ammonium sulfate (580 μl), and then the mixture was centrifuged. The precipitation was dissolved into 50 mM PB (200 μl), and 50 mM PB (100 μl) containing R-[2-^14 C] mevalonic acid (400 Bq) was added thereto and the mixture was reacted overnight at 4° C. To the mixture was added successively 0.1M PB (200 μl) containing 0.5% bovine γ-globulin and 30% polyethylene glycol 6000 (register trademark, Wako Pure Chem Ind. Ltd. 600 μl), and then the mixture was centrifuged. Radioactivity of the precipitation was measured. […] This blood serum was called as polyclonal antibody, KLH-(12)R.
To 50 mM PB containing 400 Bq of R-[2-^14 C] mevalonic acid (100 μl) was added successively a solution of antibody (the mixture of the polyclonal antibody KLH-(12)R of the present invention, water, (0.5% γ-globulin and a saturated aqueous solution of ammonium sulfate in the ratio of 0.5:4.5:0.8:5.8 was centrifugalized, and the obtained precipitation was dissolved into a solution of 50 mM PB of four times as much as amount of the used polyclonal antibody, 100 μl) and a standard solution of mevalonic acid analogous compound as indicated following table (a solution of 50 mM PB, 100 μl) in the polystyrene tube, and then the mixture was allowed to stand overnight at 4° C. To the reaction mixture was added a solution of 0.5% γ-globulin (200 μl), and further added 30% polyethylene glycol 6000 (600 μl), and then the mixture was centrifuged. The precipitation was dissolved into 0.1N aqueous solution of sodium hydroxide, and added the liquid of scintillator (1 ml), and measured radioactivity.

Assay [2] concerns the target mouse monoclonal antibody MHM-9H (IgG2b, k; hybridoma FERM BP-4524) for mevalonic acid. The assay can be described thus: Cross-reaction of mouse monoclonal antibody with analogues of mevalonic acid (enzyme immunoassay, solid phase first antibody). The following applies: for IC50: antibody MHM-9H coated 7 μg/ml, peroxidase-labeled antigen (18), overnight at 4° C., absorbance 450 nm; for cross-reactivity: antibody MHM-9H, relative to mevalonic acid = 100. The method, then: A solution of antibody (prepared in example 10 as hereinafter defined) was placed with 100 μl portions in a polystyrene 96 wells micro plate (prepared by NUNC Co.). The micro plate was allowed to stand for 1.5 hours at room temperature to be fixed. After the removal of an aqueous layer, 50 mM PB (400 μl) containing 0.5% BSA was added to block the inside of a wall of wells for 1 hour at room temperature.
After the removal of an aqueous layer, 50 mM PB (100 μl) containing mevalonic acid analogues of various concentrations was added. A solution of labeled antigen (prepared in example 10 as hereinafter defined) was added thereto with 100 μl portions and then the mixture was allowed to stand overnight at 4° C. After the removal of an aqueous layer, the dishes were washed twice with 50 mM PB (300 μl) containing 0.05% Tween 20. The substrate solution (prepared in example 9 as hereinafter, 250 μl) was added thereto and then the mixture was reacted for 15 minutes at room temperature. After the reaction was stopped by the addition of 1N sulfuric acid (50 μl), and the absorbance was measured at 450 nm.
A conjugate (18) of mevalonic acid derivative and a specer (prepared) in example 1(b). 175 nmol) was added to PBS (175 μl) containing a horse-radish peroxidase (prepared by Toyobo, 350 μg) and then the mixture was reacted for 2 hours at room temperature and then overnight at 4° C. The reaction mixture was dialyzed by a mixture of 1,4-dioxane and PBS (1:1) and then by PBS. An obtained enzyme-labeled antigen was diluted with 50 mM PB containing 0.1% BSA to become 1.25 ng/100 μl (as peroxidase protein).
Monoclonal antibody of the present invention, MHM-9H (prepared in example 5), was prepared by 50 mM PB to become 7 μg/ml.

Assay [3] has as its target mouse polyclonal antibody KLH-(12)M for mevalonic acid. The assay can be described thus: Enzyme immunoassay of mevalonic acid, solid phase antigen method, mouse polyclonal antibody KLH-(12)M. The note with it: KLH-(12)M diluted 10^4; coated BSA-(31) 0.01 μg/ml; second antibody and blocking (B). As to the method:
(§1) An emulsion of PBS (100 μl) containing each of various antigens for immunization prepared in Example 2 (120 μg as BSA when a BSA-conjugate is used or 120 μg as KLH when a KLH-conjugate is used), and FCA (100 μl) was intraperitoneally administered to a male BALC/c mouse aged eight weeks. After about 2 weeks, the mouse was immunized five times every 2 weeks, by an emulsion of a PBS solution (100 μl) containing of the antigen for immunization and FICA (100 μl), prepared by the same procedure as hereinbefore described. After the second and fifth immunization with the antigen for immunization and FICA, the titer of antibody in blood was measured by the method shown below.
(§2) Anti-mouse IgG antibody labeled with the horse-radish peroxidase (prepared by Vector Co.), which was diluted with 50 mM PB containing 0.1% BSA 10000 times (a solution of the second antibody (B)), and which was diluted with 50 mM PB containing 0.1% OVA 10000 times (a solution of the second antibody (O)). […]
(§3) After the removal of an aqueous layer, a standard solution (100 μl) was added thereto. […] After a stopping solution (50 μl) added thereto, and the absorbance was measured at 450 nm.
(§4) On all mouse polyclonal antibody, standard calibration curves were made by platting B/B0 calculated from the measured absorbance.

Assay [4] has as its target mouse polyclonal antibody KLH-(18)M for mevalonic acid. The assay can be described thus: Enzyme immunoassay of mevalonic acid, solid phase antigen method, mouse polyclonal antibody KLH-(18)M. The note with it: KLH-(18)M diluted 2 × 10^3; coated BSA-(31) 0.01 μg/ml; second antibody and blocking (B). The method, then:
as §1, §2, §3, §4

Assay [5] has as its target mouse polyclonal antibody BSA-(19)M for mevalonic acid. The assay can be described thus: Enzyme immunoassay of mevalonic acid, solid phase antigen method, mouse polyclonal antibody BSA-(19)M. The following applies: BSA-(19)M diluted 2 × 10^3; coated KLH-(31) 0.01 μg/ml; second antibody and blocking (O). As to the method:
as §1, §2, §3, §4

Assay [6] deals with mouse polyclonal antibody KLH-(31)M for mevalonic acid. The assay can be described thus: Enzyme immunoassay of mevalonic acid, solid phase antigen method, mouse polyclonal antibody KLH-(31)M. The note with it: KLH-(31)M diluted 10^5; coated BSA-(12) 0.01 μg/ml; second antibody and blocking (B). The method, then: as §1, §2, §3, §4
The target of assay [7] is mouse polyclonal antibody KLH-(39)M for mevalonic acid. The assay can be described thus: Enzyme immunoassay of mevalonic acid, solid phase antigen method, mouse polyclonal antibody KLH-(39)M. The note with it: KLH-(39)M diluted 3 × 10^4; coated BSA-(12) 0.01 μg/ml; second antibody and blocking (B). As to the method: as §1, §2, §3, §4
The target of assay [8] is mouse polyclonal antibody KLH-(45)M for mevalonic acid. The assay can be described thus: Enzyme immunoassay of mevalonic acid, solid phase antigen method, mouse polyclonal antibody KLH-(45)M. The following applies: KLH-(45)M diluted 2 × 10^3; coated BSA-(12) 0.1 μg/ml; second antibody and blocking (B). As to the method:
as §1, §2, §3, §4

In assay [9] the target is mouse polyclonal antibody KLH-(53)M for mevalonic acid. The assay can be described thus: Enzyme immunoassay of mevalonic acid, solid phase antigen method, mouse polyclonal antibody KLH-(53)M. The note with it: KLH-(53)M diluted 5 × 10^2; coated BSA-(39) 1 μg/ml; second antibody and blocking (B). As to the method: as §1, §2, §3, §4
The mark [10] stands for this setting: relative to mevalonic acid = 100.

Turning to `CC(O)(CC(=O)O)CC(=O)O` [3-Hydroxy-3-methylglutaric acid], the IC50 is recorded as 500 μg/test in assay [1] and above 250 μg/test in assay [2]. For the same molecule, the cross-reactivity is listed as 0.013% in assay [1] (setting [10]) and below 0.001% in [2].
On to `CC(CC(=O)O)CC(=O)O` [3-Methylglutaric acid], for which the IC50 in [1] is reported as 1000 μg/test; in [2], above 250 μg/test. For the same molecule, the cross-reactivity in [1] (setting [10]) is given as 0.0065%; in assay [2], below 0.001%.
Take `O=C(O)CCCC(=O)O` [Glutaric acid]: the IC50 in assay [1] is listed as above 6500 μg/test; in assay [2], above 250 μg/test. For the same molecule, the cross-reactivity in assay [1] (setting [10]) was below 0.001%; in assay [1] (relative to mevalonic acid = 100, listed as glutaric acid), “less than 0.001%”; in [2], below 0.001%.
For `C[C@@](O)(CCO)CC(=O)O` [Mevalonic acid], the IC50 in [1] came to 0.065 μg/test; in assay [2], 0.0025 μg/test; in [3], 0.5 μg/test; in [4] it was 0.3 μg/test; in [5], 3.6 μg/test; in assay [6], 0.7 μg/test. Further, the IC50 is given as 0.1 μg/test in assay [7], 4.0 μg/test in assay [8] and 6.0 μg/test in assay [9]. Besides, the cross-reactivity in assay [1] (setting [10]) and in [2] was 100% throughout.
